Tests used:
Wee1 = biological target: T1, Wee1 (Homo sapiens, UniProt P30291+Q96SW2); assay: Western-blot assay, substrate protein in hPBMCs; assay type: cell-based; conditions: hPBMC cells, 24 hours, tested at 50 nM and 500 nM, table does not say which
T1 construct: endogenous in cells; host or cells: human PBMCs (Milecell Biotechnologies)
Procedure: (§1) The effect of the compounds of the present disclosure on the expression of target proteins in cells was detected using conventional Western blot analysis.
(§2) Human peripheral blood mononuclear cells (hPBMCs) at a density of 1×10^6 cells/mL were thawed according to the PBMC Recovery Protocol (Milecell Biotechnologies Inc, Shanghai).
(§3) After 24 hours of compounds treatment, cells were harvested and lysed in RIPA protein lysate containing phosphatase inhibitors on ice for 30-60 min, followed by centrifugation. The supernatant was aspirated as the extracted total cell protein. The protein concentration of the supernatant was determined using the conventional BCA (Bicinchoninic Acid) assay. The supernatant was then mixed with 4× SDS sample loading buffer, denatured at 95° C. for 5 minutes, and then subjected to SDS-PAGE electrophoresis on a polyacrylamide gel. Proteins were then transferred to a nitrocellulose (NC) membrane, blocked at room temperature for 1-2 h, and processed for antibody incubation and detection according to the manufacturer's instructions (Cell Signaling Technology).
(§4) Half-Maximal Degradation Concentration value (the drug concentration required for degrading proteins by 50%, abbreviated as DC50) reads method: comparing the grayscale values of Western blot bands from drug-treated samples with those from blank DMSO-treated controls, and identifying the drug concentration range at which the grayscale value is half that of the DMSO-treated control bands.
(§5) DC50 values can be calculated using ImageJ software to measure grayscale values of Western blot bands from drug-treated samples. The concentration-response curve is fitted to estimate the drug concentration corresponding to half the grayscale value.
(§6) Target protein remaining (%) refers to the percentage of target protein remaining in hPBMC cells after treatment with protein degrader compounds.
(§7) Calculation method for protein remaining (%): Use ImageJ software to measure grayscale values of Western blot bands from drug (protein degrader)-treated samples. The grayscale value of drug-treated bands is divided by that of internal control protein bands, and the resulting quotient is normalized to obtain the relative percentage of remaining target protein after protein degrader treatment.
(§8) Target protein degradation rate (%)=100%−target protein remaining (%).

GSPT1 = biological target: T2, GSPT1 (Homo sapiens, UniProt P15170+Q96SW2); assay: Western-blot assay, substrate protein in hPBMCs; assay type: cell-based; conditions: hPBMC cells, 24 hours, tested at 50 nM and 500 nM, table does not say which
T2 construct: endogenous in cells; host or cells: human PBMCs (Milecell Biotechnologies)
Procedure: as §1, §2, §3, §4, §5, §6, §7, §8

[1] = biological target: T3, human Cereblon WT GST-tagged protein (Homo sapiens, UniProt Q96SW2); assay: CRBN-binding affinity, HTRF (CEREBLON BINDING kit); conditions: displacement of Thalidomide-Re reagent, 3 hours at room temperature
T3 construct: purchased CISBIO 64BDCRBNPEH
Procedure: The CEREBLON BINDING kits (specification: 10,000 tests; product number: Catalog #64BDCRBNPEH; CISBIO company) was used to determine the CRBN binding ability of the compounds to be tested through a HTRF method (homogeneous time-resolved fluorescence). The specific methods are as follows: • 1. […] Then, 2.5 μL of human Cereblon WT GST-tagged protein solution was added to each well. Finally, 5 μL of the thoroughly mixed Thalidomide-Re reagent and GST Eu antibody working solution were added to each of the aforementioned wells. […] The blank control wells were sequentially added with 2.5 μL of diluent #9 (1×) solution, 2.5 μL of PROTAC binding buffer, and 5 μL of thoroughly mixed Thalidomide-Re reagent and GST Eu antibody working solution. • 4.
OD 620 nmcompound is the absorbance value of each well of the compounds to be tested of the present disclosure at an emission wavelength of 620 nm. […] OD 620 nmcontrol is the absorbance value of the blank control well at an emission wavelength of 620 nm. […] OD 620 nmStd0 is the absorbance value of the solvent control well at an emission wavelength of 620 nm.

CK1α = biological target: T4, CK1α (Homo sapiens, UniProt P48729+Q96SW2); assay: Western-blot assay, substrate protein in hPBMCs; assay type: cell-based; conditions: hPBMC cells, 24 hours, tested at 50 nM and 500 nM, table does not say which
T4 construct: endogenous in cells; host or cells: human PBMCs (Milecell Biotechnologies)
Procedure: as §1, §2, §3, §4, §5, §6, §7, §8

T4 sequence (P48729 whole entry): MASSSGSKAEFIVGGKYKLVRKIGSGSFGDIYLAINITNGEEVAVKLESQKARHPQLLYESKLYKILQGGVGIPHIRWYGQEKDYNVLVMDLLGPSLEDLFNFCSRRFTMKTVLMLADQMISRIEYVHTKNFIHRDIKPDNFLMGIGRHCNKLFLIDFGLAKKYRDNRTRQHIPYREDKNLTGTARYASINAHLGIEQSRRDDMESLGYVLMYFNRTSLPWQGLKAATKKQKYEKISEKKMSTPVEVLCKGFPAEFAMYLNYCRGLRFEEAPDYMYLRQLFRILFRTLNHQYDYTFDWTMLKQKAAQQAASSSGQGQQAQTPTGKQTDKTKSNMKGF
T4 sequence (Q96SW2 whole entry): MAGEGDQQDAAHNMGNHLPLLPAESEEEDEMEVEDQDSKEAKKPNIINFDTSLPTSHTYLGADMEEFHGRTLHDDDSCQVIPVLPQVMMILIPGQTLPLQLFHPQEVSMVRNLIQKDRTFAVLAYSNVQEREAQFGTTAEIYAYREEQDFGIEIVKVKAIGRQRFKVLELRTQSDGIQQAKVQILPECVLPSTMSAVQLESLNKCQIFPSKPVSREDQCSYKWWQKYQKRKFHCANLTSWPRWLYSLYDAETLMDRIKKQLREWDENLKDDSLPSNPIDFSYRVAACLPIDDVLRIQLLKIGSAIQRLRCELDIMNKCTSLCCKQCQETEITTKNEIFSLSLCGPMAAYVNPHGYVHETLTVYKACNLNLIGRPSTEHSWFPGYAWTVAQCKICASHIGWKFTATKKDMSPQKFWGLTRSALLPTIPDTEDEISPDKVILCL
T4 sequence (Q16531 whole entry partner): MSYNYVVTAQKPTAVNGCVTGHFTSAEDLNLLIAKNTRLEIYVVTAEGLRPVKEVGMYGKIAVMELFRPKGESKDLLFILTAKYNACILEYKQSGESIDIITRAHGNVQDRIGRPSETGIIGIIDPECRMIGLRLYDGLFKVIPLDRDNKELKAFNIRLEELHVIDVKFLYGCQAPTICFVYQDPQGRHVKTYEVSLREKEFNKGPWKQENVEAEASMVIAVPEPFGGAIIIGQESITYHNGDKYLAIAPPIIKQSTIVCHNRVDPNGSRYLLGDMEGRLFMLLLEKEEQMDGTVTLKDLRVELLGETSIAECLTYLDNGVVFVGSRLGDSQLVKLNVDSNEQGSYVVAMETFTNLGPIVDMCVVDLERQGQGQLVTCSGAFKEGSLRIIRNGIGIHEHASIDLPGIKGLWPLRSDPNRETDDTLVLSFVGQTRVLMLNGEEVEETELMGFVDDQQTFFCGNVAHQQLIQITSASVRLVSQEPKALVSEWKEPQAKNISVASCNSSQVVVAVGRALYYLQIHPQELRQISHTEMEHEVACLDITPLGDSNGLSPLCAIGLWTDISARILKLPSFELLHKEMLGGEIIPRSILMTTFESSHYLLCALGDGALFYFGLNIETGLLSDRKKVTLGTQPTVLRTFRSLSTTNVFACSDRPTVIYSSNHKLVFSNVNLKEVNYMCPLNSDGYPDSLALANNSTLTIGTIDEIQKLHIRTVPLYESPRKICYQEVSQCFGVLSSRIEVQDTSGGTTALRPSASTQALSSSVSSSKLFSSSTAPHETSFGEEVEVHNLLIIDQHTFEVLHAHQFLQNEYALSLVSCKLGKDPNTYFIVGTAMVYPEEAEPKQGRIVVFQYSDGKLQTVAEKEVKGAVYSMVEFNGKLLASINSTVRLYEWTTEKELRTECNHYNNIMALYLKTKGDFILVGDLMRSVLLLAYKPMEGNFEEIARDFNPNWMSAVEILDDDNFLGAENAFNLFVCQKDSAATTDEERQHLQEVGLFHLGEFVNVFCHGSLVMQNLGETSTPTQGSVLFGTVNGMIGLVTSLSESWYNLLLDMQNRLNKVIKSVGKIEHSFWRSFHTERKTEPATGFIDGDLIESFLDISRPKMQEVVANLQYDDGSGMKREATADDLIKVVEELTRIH
T1 sequence (P30291 whole entry): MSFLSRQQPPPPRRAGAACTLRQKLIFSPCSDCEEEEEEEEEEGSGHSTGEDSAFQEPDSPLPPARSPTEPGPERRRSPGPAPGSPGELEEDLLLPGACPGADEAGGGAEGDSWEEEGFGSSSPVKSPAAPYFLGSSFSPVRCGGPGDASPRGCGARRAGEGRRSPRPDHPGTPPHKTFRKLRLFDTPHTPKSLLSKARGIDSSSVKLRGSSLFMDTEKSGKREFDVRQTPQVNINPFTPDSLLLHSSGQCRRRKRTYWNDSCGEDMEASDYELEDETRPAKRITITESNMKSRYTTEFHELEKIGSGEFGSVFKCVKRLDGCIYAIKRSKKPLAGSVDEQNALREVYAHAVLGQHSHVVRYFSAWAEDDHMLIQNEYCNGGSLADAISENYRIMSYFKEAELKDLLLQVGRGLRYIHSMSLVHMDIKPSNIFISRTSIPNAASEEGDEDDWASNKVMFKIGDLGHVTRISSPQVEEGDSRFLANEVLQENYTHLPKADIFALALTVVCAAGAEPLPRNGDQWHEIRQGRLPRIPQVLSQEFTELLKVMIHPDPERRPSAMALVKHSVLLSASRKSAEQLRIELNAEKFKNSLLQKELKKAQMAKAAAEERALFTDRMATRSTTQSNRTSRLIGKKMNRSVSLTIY
T1 sequence (Q96SW2 whole entry): as the sequence (Q96SW2 whole entry) above
T1 sequence (Q16531 whole entry partner): as the sequence (Q16531 whole entry partner) above
T2 sequence (P15170 whole entry): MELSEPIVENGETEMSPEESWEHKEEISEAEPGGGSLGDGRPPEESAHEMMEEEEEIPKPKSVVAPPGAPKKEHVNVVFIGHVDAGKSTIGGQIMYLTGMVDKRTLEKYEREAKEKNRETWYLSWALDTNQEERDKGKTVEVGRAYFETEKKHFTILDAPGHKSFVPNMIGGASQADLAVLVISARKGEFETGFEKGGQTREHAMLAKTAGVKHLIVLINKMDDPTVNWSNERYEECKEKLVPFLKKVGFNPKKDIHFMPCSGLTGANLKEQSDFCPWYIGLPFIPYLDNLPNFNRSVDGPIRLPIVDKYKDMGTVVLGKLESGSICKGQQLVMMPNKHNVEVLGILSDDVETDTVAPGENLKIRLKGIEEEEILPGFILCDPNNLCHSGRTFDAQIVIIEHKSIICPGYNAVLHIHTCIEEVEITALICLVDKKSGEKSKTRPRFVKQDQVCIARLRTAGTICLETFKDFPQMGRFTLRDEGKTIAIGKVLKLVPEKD
T2 sequence (Q96SW2 whole entry): as the sequence (Q96SW2 whole entry) above
T2 sequence (Q16531 whole entry partner): as the sequence (Q16531 whole entry partner) above
T3 sequence (Q96SW2 whole entry): as the sequence (Q96SW2 whole entry) above

Structure (SMILES) | substrate protein remaining % (Wee1) | substrate protein remaining % (GSPT1) | IC50 [1] [nM] | substrate protein remaining % (CK1α)
O=C1CCC(N2Cc3cc(SC4CN(C(c5ccccc5)c5ccccc5)C4)ccc3C2=O)C(=O)N1 (centres unmarked) [GT-06138, 3-(5-((1-benzhydrylazetidin-3-yl)thio)-1-oxoisoindolin-2-yl)piperidine-2,6-dione] | A (0%≤ substrate protein remaining % ≤80%) | A (0%≤ substrate protein remaining % ≤80%) | 500 to 1000 | –
O=C1CCC(N2Cc3cc(OC4CN(CC5=C(c6ccc(Cl)cc6)CCC(F)(F)C5)C4)ccc3C2=O)C(=O)N1 (centres unmarked) [GT-06563, 3-(5-((1-((4′-chloro-4,4-difluoro-3,4,5,6-tetrahydro-[1,1′-biphenyl]-2-yl)methyl)azetidin-3-yl)oxy)-1-oxoisoindolin-2-yl)piperidine-2,6-dione] | A (0%≤ substrate protein remaining % ≤80%) | – | 500 to 1000 | –
CC1(C)CCC(CN2CC(Oc3cccc4c3C(=O)N(C3CCC(=O)NC3=O)C4)C2)=C(c2ccc(Cl)cc2)C1 (centres unmarked) [GT-07063] | – | – | – | A (0%≤ substrate protein remaining % ≤80%)
O=C1CCC(N2Cc3cc(SC4CCNC4)ccc3C2=O)C(=O)N1 (centres unmarked) [GT-04309, 3-(1-oxo-5-(pyrrolidin-3-ylthio)isoindolin-2-yl)piperidine-2,6-dione] | – | A (0%≤ substrate protein remaining % ≤80%) | – | –
O=C1CCC(N2Cc3cc(SC4CCCN(C(=O)c5ccccc5-c5ccc(Cl)cc5)CC4)ccc3C2=O)C(=O)N1 (centres unmarked) [GT-06644, 3-(5-((1-(4′-chloro-[1,1′-biphenyl]-2-carbonyl)azepan-4-yl)thio)-1-oxoisoindolin-2-yl)piperidine-2,6-dione] | – | A (0%≤ substrate protein remaining % ≤80%) | < 500 | –
CC1(C)CCC(C(=O)N2CCC(Sc3ccc4c(c3)CN(C3CCC(=O)NC3=O)C4=O)CC2)=C(c2ccc(Cl)cc2)C1 (centres unmarked) [GT-06140, 3-(5-((1-(4′-chloro-5,5-dimethyl-3,4,5,6-tetrahydro-[1,1′-biphenyl]-2-carbonyl)piperidin-4-yl)thio)-1-oxoisoindolin-2-yl)piperidine-2,6-dione] | A (0%≤ substrate protein remaining % ≤80%) | – | 500 to 1000 | –
O=C1CCC(N2Cc3cc(OC4CN(C(c5ccc(Cl)cc5)c5ccc(Cl)cc5)C4)ccc3C2=O)C(=O)N1 (centres unmarked) [GT-06520, 3-(5-((1-(bis(4-chlorophenyl)methyl)azetidin-3-yl)oxy)-1-oxoisoindolin-2-yl)piperidine-2,6-dione] | – | A (0%≤ substrate protein remaining % ≤80%) | 1000 to 1900 | –
COC1(C)CCC(c2ccc(Cl)cc2)=C(CN2CC(Sc3ccc4c(c3)CN(C3CCC(=O)NC3=O)C4=O)C2)C1 (centres unmarked) [GT-07064, 3-(5-((1-((4′-chloro-4-methoxy-4-methyl-3,4,5,6-tetrahydro-[1,1′-biphenyl]-2-yl)methyl)azetidin-3-yl)thio)-1-oxoisoindolin-2-yl)piperidine-2,6-dione] | – | – | – | A (0%≤ substrate protein remaining % ≤80%)
O=C1CCC(N2Cc3cc(OC4CN(C(=O)c5ccccc5-c5ccc(Cl)cc5)C4)ccc3C2=O)C(=O)N1 (centres unmarked) [GT-06183, 3-(5-((1-(4′-chloro-[1,1′-biphenyl]-2-carbonyl)azetidin-3-yl)oxy)-1-oxoisoindolin-2-yl)piperidine-2,6-dione] | A (0%≤ substrate protein remaining % ≤80%) | – | < 500 | –
CC1(C)CCC(C(=O)N2C[C@H]3CC(Oc4ccc5c(c4)CN(C4CCC(=O)NC4=O)C5=O)C[C@H]3C2)=C(c2ccc(Cl)cc2)C1 (stereo partly drawn) [GT-07019, 3-(5-(((3aR,6aS)-2-(4′-chloro-5,5-dimethyl-3,4,5,6-tetrahydro-[1,1′-biphenyl]-2-carbonyl)octahydro-cyclopenta[c]pyrrol-5-yl)oxy)-1-oxoisoindolin-2-yl)piperidine-2,6-dione] | A (0%≤ substrate protein remaining % ≤80%) | – | < 500 | –
COC1(C)CCC(c2ccc(Cl)cc2)=C(CN2CC(Oc3ccc4c(c3)CN(C3CCC(=O)NC3=O)C4=O)C2)C1 (centres unmarked) [GT-07065, 3-(5-((1-((4′-chloro-4-methoxy-4-methyl-3,4,5,6-tetrahydro-[1,1′-biphenyl]-2-yl)methyl)azetidin-3-yl)oxy)-1-oxoisoindolin-2-yl)piperidine-2,6-dione] | – | – | – | A (0%≤ substrate protein remaining % ≤80%)
CC1(C)CCC(CN2CCC(Oc3ccc4c(c3)CN(C3CCC(=O)NC3=O)C4=O)CC2)=C(c2ccc(Cl)cc2)C1 (centres unmarked) [GT-07061, 3-(5-((1-((4′-chloro-5,5-dimethyl-3,4,5,6-tetrahydro-[1,1′-biphenyl]-2-yl)methyl)piperidin-4-yl)oxy)-1-oxoisoindolin-2-yl)piperidine-2,6-dione] | – | – | – | A (0%≤ substrate protein remaining % ≤80%)
O=C1CCC(N2Cc3cc(OC4CNC4)ccc3C2=O)C(=O)N1 (centres unmarked) [GT-03614, 3-(5-(azetidin-3-yloxy)-1-oxoisoindolin-2-yl)piperidine-2,6-dione] | A (0%≤ substrate protein remaining % ≤80%) | – | – | –
O=C1CCC(N2Cc3cc(OC4CCCNCC4)ccc3C2=O)C(=O)N1 (centres unmarked) [GT-07003, 3-(5-(azepan-4-yloxy)-1-oxoisoindolin-2-yl)piperidine-2,6-dione] | A (0%≤ substrate protein remaining % ≤80%) | – | – | –
O=C1CCC(N2Cc3cc(SC4C[C@@H]5CN(C(=O)c6ccccc6-c6ccc(Cl)cc6)C[C@H]5C4)ccc3C2=O)C(=O)N1 (stereo partly drawn) [GT-07023, 3-(5-(((3aS,6aS)-2-(4′-chloro-[1,1′-biphenyl]-2-carbonyl)octahydro-cyclopenta[c]pyrrol-5-yl)thio)-1-oxoisoindolin-2-yl)piperidine-2,6-dione] | A (0%≤ substrate protein remaining % ≤80%) | – | < 500 | –
O=C1CCC(N2Cc3c(SC4CNC4)cccc3C2=O)C(=O)N1 (centres unmarked) [GT-06992, 3-(4-(azetidin-3-ylthio)-1-oxoisoindolin-2-yl)piperidine-2,6-dione] | – | – | 500 to 1000 | –
O=C1CCC(N2Cc3cc(SC4CN(CC5=C(c6ccc(F)cc6)CCOC5)C4)ccc3C2=O)C(=O)N1 (centres unmarked) [GT-06513, 3-(5-((1-((4-(4-fluorophenyl)-5,6-dihydro-2H-pyran-3-yl)methyl)azetidin-3-yl)thio)-1-oxoisoindolin-2-yl)piperidine-2,6-dione] | – | A (0%≤ substrate protein remaining % ≤80%) | < 500 | –
CC1(C)CCC(C(=O)N2CCC3(CC2)CC(Oc2ccc4c(c2)CN(C2CCC(=O)NC2=O)C4=O)C3)=C(c2ccc(Cl)cc2)C1 (centres unmarked) [GT-07020, 3-(5-((7-(4′-chloro-5,5-dimethyl-3,4,5,6-tetrahydro-[1,1′-biphenyl]-2-carbonyl)-7-azaspiro[3.5]nonan-2-yl)oxy)-1-oxoisoindolin-2-yl)piperidine-2,6-dione] | A (0%≤ substrate protein remaining % ≤80%) | A (0%≤ substrate protein remaining % ≤80%) | 500 to 1000 | –
O=C1CCC(N2Cc3cc(SC4CN(Cc5ccc(-c6ccco6)s5)C4)ccc3C2=O)C(=O)N1 (centres unmarked) [GT-06517, 3-(5-((1-((5-(furan-2-yl)thiophen-2-yl)methyl)azetidin-3-yl)thio)-1-oxoisoindolin-2-yl)piperidine-2,6-dione] | – | – | < 500 | –
O=C1CCC(N2Cc3ccc(SC4CNC4)cc3C2=O)C(=O)N1 (centres unmarked) [GT-06993, 3-(6-(azetidin-3-ylthio)-1-oxoisoindolin-2-yl)piperidine-2,6-dione] | – | – | 1000 to 1900 | –

Reference: patent US20260207578A1, “COMPOUND BASED ON SULFUR/OXYGEN SUBSTITUTED GLUTARIMIDE-BASED ISOINDOLINONE SKELETON AND USE THEREOF” (Gluetacs Therapeutics (Shanghai) Co., LTD., priority 2022, published 2026)
